Reference: patent US5521216A, “Chromone derivative, and aldose reductase inhibitor comprising said compound as active ingredient” (Tsumura & Co., priority 1992, dated 1996)

What was measured:
[1] = molecular target: T1, Aldose reductase (Rattus norvegicus, UniProt P07943); experiment: Aldose reductase activity measurement (in vivo), sorbitol in sciatic nerves of STZ diabetic rats; set-up: species or system Wistar male rats; settings: sciatic nerve sorbitol, oral for 2 weeks, 100 mg/kg (other compounds stated at 30 mg/kg)
T1 construct: The crystalline lenses were homogenized in 135 mM sodium-potassium-phosphate buffer; from tissue; host or cells: crystalline lens of 6 week-old male Wistar rats (30,000 rpm supernatant)
Experimental: <Aldose reductase activity measurement (in vivo)>
A solution of streptozotocin (STZ) in 10 mM citrate buffer (pH 4.5) was administered intravenously to the tails of 6 week-old Wistar male rats in a dosage of 65 mg/kg. 48 hours thereafter, blood was collected from the carotid arteries of the rats. Rats with a blood sugar level of higher than 200 mg/dl were classified as diabetic rats, among which rats with a persistent high level of blood sugar were employed in the experiment. The blood sugar level was determined by the glucose oxidase method. […]
After 2-week administration, the sciatic nerves were removed from the rat under ether anesthesia, then weighed, and stored at -20° C.
The content of sorbitol in the sciatic nerves was determined as follows.
The sciatic nerves were extracted at 100° C. for 20 min. with 1 ml purified water containing 10 μg/ml arabinitol, and then 0.2 ml of 0.2M barium hydroxide and 0.2 ml of 0.19M zinc sulfate were added thereto. The sample was centrifuged (3000 rpm, 30 min.) and the supernatant was evaporated to dryness. The residue thus obtained was trimethysilylated and was then analyzed by gas chromatography.
Sorbitol is an intermediate which occurs upon the conversion of glucose into fructose by aldose reductase and is accumulated together with fructose in the crystalline lenses and sciatic nerves particularly under a high level of blood sugar. […]

[2] = molecular target: T1, Aldose reductase; experiment: Aldose reductase activity measurement (in vitro), rat crystalline lens enzyme, NADP fluorescence; assay type: biochemical, Wistar male rats; settings: 20 mM glucose substrate, 30 min, 30° C., pH 7.0, read-out: 50% inhibition concentration [IC50 (M)]
Experimental: <Aldose reductase activity measurement (in vitro)>
6 week-old Wistar male rats were sacrificed under ether anesthesia and immediately the crystalline lenses were scissored and stored at -20° C.
The crystalline lenses were homogenized in 135 mM sodium-potassium-phosphate buffer, pH 7.0, and centrifuged for 30 min. at 30,000 rpm. The supernatant was used as an aldose-reductase solution. All the above procedures were carried out at 4° C. and the enzyme solution was stored at -20° C.
Aldose reductase activity was determined according to the method as described by Dufrane et al. (Biochemical Medicine, 32, 99-105 (1984)), as follows.
100 μl of the above enzyme solution and 100 μl of a sample solution prepared by dissolving a compound obtained in the following examples to a final concentration of from 1.0×10^-5 to 4.0×10^-7 M in dimethylsulfoxide (DMSO) were added to 800 μl of 135 mM sodium-potassium-phosphate buffer, pH 7.0, containing 100 mM lithium sulfate, 0.03 mM NADPH (reduced nicotinamide adenine dinucleotide phosphate), and 20 mM glucose as a substrate. The sample was allowed to react for 30 min. at 30° C. Then the reaction was stopped by addition of 0.3 ml of 0.5N hydrochloric acid. By adding 1 ml of 6N sodium hydroxide containing 10 mM imidazole, the NADP (oxidized nicotinamide adenine dinucleotide phosphate) formed in the above reaction was converted into a fluorescent substance, and 30 min. thereafter, the sample was measured for fluorescence intensity at the fluorescence wavelength of 460 nm (excitation wavelength: 360 nm) using fluorescence photometer F-4000 (manufactured by Hitachi, Ltd.) at room temperature. A sample containing DMSO in place of the present compound was used as a control group, and its fluorescence intensity was determined in the same manner as described above.
Aldose reductase is an enzyme that converts DL-glyceraldehyde or glucose into polyol in the presence of […] as a coenzyme, and as the reaction proceeds, NADPH is converted into NADP.

SMILES | Repression (%) [1] [%] | IC50 [2] [M]
CC(C)Oc1cc(OC(C)C)c2c(=O)cc(Sc3ccc(O)cc3)oc2c1 [Example 1, 2-(4-hydroxyphenylthio)-5,7-di-isopropoxychromone] |  | 1.8e-08
COc1cc(OC(C)C)cc2oc(Sc3ccc(O)cc3)cc(=O)c12 [Example 6, 2-(4-hydroxyphenylthio)-7-isopropoxy-5-methoxychromone] |  | 8e-08

Results, then the molecule that gave them:

Repression (%) [1] [%] | IC50 [2] [M] | SMILES
18.9 |  | COc1c(O)cc2oc(Oc3ccc(O)cc3)cc(=O)c2c1O [Capillarisin]
 | 3.2e-07 | O=c1cc(Sc2ccc(O)cc2)oc2cc(O)cc(O)c12 [Example 4, 5,7-dihydroxy-2-(4-hydroxyphenylthio)chromone]
 | 2.3e-07 | CC(C)Oc1cc(O)c2c(=O)cc(Sc3ccc(O)cc3)oc2c1 [Example 5, 5-hydroxy-2-(4-hydroxyphenylthio)-7-isopropoxychromone]
